Results reported in ChEMBL document CHEMBL1201861, “Genomics of Drug Sensitity in Cancer screening data, Wellcome Trust Sanger Institute”.

How the values were obtained:
Assay in all cases: cells
NCI-H1650 = assay type: functional, cell-based, Homo sapiens; conditions: Homo sapiens, NCI-H1650
Description: SANGER: Inhibition of human NCI-H1650 cell growth in a cell viability assay.

647-V = assay type: functional, cell-based, Homo sapiens; conditions: Homo sapiens, 647-V
Description: SANGER: Inhibition of human 647-V cell growth in a cell viability assay.

HEL = assay type: functional, cell-based, Homo sapiens; conditions: Homo sapiens, HEL
Description: SANGER: Inhibition of human HEL cell growth in a cell viability assay.

OVCAR-5 = assay type: functional, cell-based, Homo sapiens; conditions: Homo sapiens, OVCAR-5
Description: SANGER: Inhibition of human OVCAR-5 cell growth in a cell viability assay.

HCC1937 = assay type: functional, cell-based, Homo sapiens; conditions: Homo sapiens, HCC1937
Description: SANGER: Inhibition of human HCC1937 cell growth in a cell viability assay.

PC-3 = assay type: functional, cell-based, Homo sapiens; conditions: Homo sapiens, PC-3
Description: SANGER: Inhibition of human PC-3 cell growth in a cell viability assay.

UACC-62 = assay type: functional, cell-based, Homo sapiens; conditions: Homo sapiens, UACC-62
Description: SANGER: Inhibition of human UACC-62 cell growth in a cell viability assay.

COLO-678 = assay type: functional, cell-based, Homo sapiens; conditions: Homo sapiens, COLO-678
Description: SANGER: Inhibition of human COLO-678 cell growth in a cell viability assay.

OE19 = assay type: functional, cell-based, Homo sapiens; conditions: Homo sapiens, OE19
Description: SANGER: Inhibition of human OE19 cell growth in a cell viability assay.

RD = assay type: functional, cell-based, Homo sapiens; conditions: Homo sapiens, RD
Description: SANGER: Inhibition of human RD cell growth in a cell viability assay.

Becker = assay type: functional, cell-based, Homo sapiens; conditions: Homo sapiens, Becker
Description: SANGER: Inhibition of human Becker cell growth in a cell viability assay.

697 = assay type: functional, cell-based; conditions: Homo sapiens
Description: SANGER: Inhibition of human 697 cell growth in a cell viability assay.

MCF7 = assay type: functional, cell-based, Homo sapiens; conditions: Homo sapiens, MCF7
Description: SANGER: Inhibition of human MCF7 cell growth in a cell viability assay.

HuO-3N1 = assay type: functional, cell-based, Homo sapiens; conditions: Homo sapiens, HuO-3N1
Description: SANGER: Inhibition of human HuO-3N1 cell growth in a cell viability assay.

SW780 = assay type: functional, cell-based, Homo sapiens; conditions: Homo sapiens, SW780
Description: SANGER: Inhibition of human SW780 cell growth in a cell viability assay.

KP-N-YS = assay type: functional, cell-based; conditions: Homo sapiens
Description: SANGER: Inhibition of human KP-N-YS cell growth in a cell viability assay.

DEL = assay type: functional, cell-based; conditions: Homo sapiens
Description: SANGER: Inhibition of human DEL cell growth in a cell viability assay.

BHY = assay type: functional, cell-based, Homo sapiens; conditions: Homo sapiens, BHY
Description: SANGER: Inhibition of human BHY cell growth in a cell viability assay.

SW1463 = assay type: functional, cell-based, Homo sapiens; conditions: Homo sapiens, SW1463
Description: SANGER: Inhibition of human SW1463 cell growth in a cell viability assay.

LOX IMVI = assay type: functional, cell-based; conditions: Homo sapiens
Description: SANGER: Inhibition of human LOXIMVI cell growth in a cell viability assay.

COLO-792 = assay type: functional, cell-based, Homo sapiens; conditions: Homo sapiens, COLO-792
Description: SANGER: Inhibition of human COLO-792 cell growth in a cell viability assay.

NCI-H1355 = assay type: functional, cell-based, Homo sapiens; conditions: Homo sapiens, NCI-H1355
Description: SANGER: Inhibition of human NCI-H1355 cell growth in a cell viability assay.

EW-11 = assay type: functional, cell-based, Homo sapiens; conditions: Homo sapiens, EW-11
Description: SANGER: Inhibition of human EW-11 cell growth in a cell viability assay.

HD-MY-Z = assay type: functional, cell-based, Homo sapiens; conditions: Homo sapiens, HD-MY-Z
Description: SANGER: Inhibition of human HD-MY-Z cell growth in a cell viability assay.

MG-63 = assay type: functional, cell-based, Homo sapiens; conditions: Homo sapiens, MG-63
Description: SANGER: Inhibition of human MG-63 cell growth in a cell viability assay.

A4-Fuk = assay type: functional, cell-based; conditions: Homo sapiens
Description: SANGER: Inhibition of human A4-Fuk cell growth in a cell viability assay.

TE-1 = assay type: functional, cell-based, Homo sapiens; conditions: Homo sapiens, TE-1
Description: SANGER: Inhibition of human TE-1 cell growth in a cell viability assay.

S-117 = assay type: functional, cell-based, Homo sapiens; conditions: Homo sapiens, S-117
Description: SANGER: Inhibition of human S-117 cell growth in a cell viability assay.

SCC-9 = assay type: functional, cell-based, Homo sapiens; conditions: Homo sapiens, SCC-9
Description: SANGER: Inhibition of human SCC-9 cell growth in a cell viability assay.

SW48 = assay type: functional, cell-based, Homo sapiens; conditions: Homo sapiens, SW48
Description: SANGER: Inhibition of human SW48 cell growth in a cell viability assay.

ES6 = assay type: functional, cell-based, Homo sapiens; conditions: Homo sapiens, ES6
Description: SANGER: Inhibition of human ES6 cell growth in a cell viability assay.

OCUB-M = assay type: functional, cell-based, Homo sapiens; conditions: Homo sapiens, OCUB-M
Description: SANGER: Inhibition of human OCUB-M cell growth in a cell viability assay.

LXF-289 cell line = assay type: functional, cell-based, Homo sapiens; conditions: Homo sapiens, LXF-289
Description: SANGER: Inhibition of human LXF-289 cell growth in a cell viability assay.

Calu-6 = assay type: functional, cell-based, Homo sapiens; conditions: Homo sapiens, Calu-6
Description: SANGER: Inhibition of human Calu-6 cell growth in a cell viability assay.

SNU-C2B = assay type: functional, cell-based, Homo sapiens; conditions: Homo sapiens, SNU-C2B
Description: SANGER: Inhibition of human SNU-C2B cell growth in a cell viability assay.

PC-14 = assay type: functional, cell-based, Homo sapiens; conditions: Homo sapiens, PC-14
Description: SANGER: Inhibition of human PC-14 cell growth in a cell viability assay.

COLO-668 = assay type: functional, cell-based, Homo sapiens; conditions: Homo sapiens, COLO-668
Description: SANGER: Inhibition of human COLO-668 cell growth in a cell viability assay.

NCI-H28 = assay type: functional, cell-based, Homo sapiens; conditions: Homo sapiens, NCI-H28
Description: SANGER: Inhibition of human NCI-H28 cell growth in a cell viability assay.

Hs-578T = assay type: functional, cell-based, Homo sapiens; conditions: Homo sapiens, Hs-578T
Description: SANGER: Inhibition of human Hs-578-T cell growth in a cell viability assay.

CAL-27 = assay type: functional, cell-based, Homo sapiens; conditions: Homo sapiens, CAL-27
Description: SANGER: Inhibition of human CAL-27 cell growth in a cell viability assay.

ML-2 = assay type: functional, cell-based; conditions: Homo sapiens
Description: SANGER: Inhibition of human ML-2 cell growth in a cell viability assay.

KARPAS-299 = assay type: functional, cell-based; conditions: Homo sapiens
Description: SANGER: Inhibition of human KARPAS-299 cell growth in a cell viability assay.

A2058 = assay type: functional, cell-based; conditions: Homo sapiens
Description: SANGER: Inhibition of human A2058 cell growth in a cell viability assay.

LB2241-RCC = assay type: functional, cell-based, Homo sapiens; conditions: Homo sapiens, LB2241-RCC
Description: SANGER: Inhibition of human LB2241-RCC cell growth in a cell viability assay.

COR-L23 = assay type: functional, cell-based, Homo sapiens; conditions: Homo sapiens, COR-L23
Description: SANGER: Inhibition of human COR-L23 cell growth in a cell viability assay.

K562 = assay type: functional, cell-based; conditions: Homo sapiens
Description: SANGER: Inhibition of human K-562 cell growth in a cell viability assay.

LU-99A = assay type: functional, cell-based, Homo sapiens; conditions: Homo sapiens, LU-99A
Description: SANGER: Inhibition of human LU-99A cell growth in a cell viability assay.

RXF 393 = assay type: functional, cell-based; conditions: Homo sapiens
Description: SANGER: Inhibition of human RXF393 cell growth in a cell viability assay.

NCI-H1155 = assay type: functional, cell-based; conditions: Homo sapiens
Description: SANGER: Inhibition of human NCI-H1155 cell growth in a cell viability assay.

MMAC-SF = assay type: functional, cell-based, Homo sapiens; conditions: Homo sapiens, MMAC-SF
Description: SANGER: Inhibition of human MMAC-SF cell growth in a cell viability assay.

HMV-2 cell line = assay type: functional, cell-based, Homo sapiens; conditions: Homo sapiens, HMV-2
Description: SANGER: Inhibition of human HMV-II cell growth in a cell viability assay.

## COc1cc(F)c(F)c(Nc2ccc(I)cc2F)c1NS(=O)(=O)C1(CC(O)CO)CC1 (stereo not drawn)
NCI-H1650
  IC50: > 5 µM
647-V
  IC50: > 5 µM
HEL
  IC50: > 5 µM
OVCAR-5
  IC50: 0.234 µM
HCC1937
  IC50: > 5 µM
PC-3
  IC50: > 5 µM
UACC-62
  IC50: > 5 µM
COLO-678
  IC50: 2.11 µM
OE19
  IC50: > 5 µM
RD
  IC50: 3.28 µM
Becker
  IC50: > 5 µM
697
  IC50: > 5 µM
MCF7
  IC50: > 5 µM
HuO-3N1
  IC50: > 5 µM
SW780
  IC50: 0.758 µM
KP-N-YS
  IC50: > 5 µM
DEL
  IC50: > 5 µM
BHY
  IC50: 3.29 µM
SW1463
  IC50: 4.13 µM
LOX IMVI
  IC50: 0.477 µM
COLO-792
  IC50: 0.761 µM
NCI-H1355
  IC50: > 5 µM
EW-11
  IC50: > 5 µM
HD-MY-Z
  IC50: 0.886 µM
MG-63
  IC50: 2.82 µM
A4-Fuk
  IC50: 1.85 µM
TE-1
  IC50: > 5 µM
S-117
  IC50: > 5 µM
SCC-9
  IC50: > 5 µM
SW48
  IC50: > 5 µM
ES6
  IC50: > 5 µM
OCUB-M
  IC50: > 5 µM
LXF-289 cell line
  IC50: 3.54 µM
Calu-6
  IC50: > 5 µM
SNU-C2B
  IC50: > 5 µM
PC-14
  IC50: 4.17 µM
COLO-668
  IC50: > 5 µM
NCI-H28
  IC50: > 5 µM
Hs-578T
  IC50: 1.76 µM
CAL-27
  IC50: > 5 µM
ML-2
  IC50: 0.503 µM
KARPAS-299
  IC50: > 5 µM
A2058
  IC50: 3.8 µM
LB2241-RCC
  IC50: 3.3 µM
COR-L23
  IC50: 2.78 µM
K562
  IC50: > 5 µM
LU-99A
  IC50: 3.96 µM
RXF 393
  IC50: 1.45 µM
NCI-H1155
  IC50: > 5 µM

## COc1ccc(-c2ccc3c(N4CCOC[C@@H]4C)nc(N4CCOC[C@@H]4C)nc3n2)cc1CO [AZD-8055]
NCI-H1650
  IC50: > 2 µM
647-V
  IC50: 1.54 µM
HEL
  IC50: 1.94 µM
OVCAR-5
  IC50: 0.429 µM
HCC1937
  IC50: > 2 µM
PC-3
  IC50: 0.722 µM
UACC-62
  IC50: > 2 µM
COLO-678
  IC50: > 2 µM
OE19
  IC50: > 2 µM
RD
  IC50: > 2 µM
Becker
  IC50: 1.52 µM
697
  IC50: 0.274 µM
MCF7
  IC50: 0.405 µM
HuO-3N1
  IC50: 0.384 µM
SW780
  IC50: 0.576 µM
KP-N-YS
  IC50: 0.431 µM
DEL
  IC50: 0.968 µM
BHY
  IC50: 0.887 µM
SW1463
  IC50: > 2 µM
LOX IMVI
  IC50: 0.551 µM
COLO-792
  IC50: > 2 µM
NCI-H1355
  IC50: 0.539 µM
EW-11
  IC50: 1.62 µM
HD-MY-Z
  IC50: 0.841 µM
MG-63
  IC50: 0.274 µM
A4-Fuk
  IC50: 1.2 µM
TE-1
  IC50: > 2 µM
S-117
  IC50: > 2 µM
SCC-9
  IC50: > 2 µM
SW48
  IC50: 1.11 µM
ES6
  IC50: 1.36 µM
OCUB-M
  IC50: 0.827 µM
LXF-289 cell line
  IC50: 0.25 µM
Calu-6
  IC50: > 2 µM
SNU-C2B
  IC50: > 2 µM
PC-14
  IC50: 0.59 µM
COLO-668
  IC50: > 2 µM
NCI-H28
  IC50: 0.587 µM
Hs-578T
  IC50: 0.599 µM
CAL-27
  IC50: > 2 µM
ML-2
  IC50: 0.585 µM
KARPAS-299
  IC50: > 2 µM
A2058
  IC50: 0.974 µM
LB2241-RCC
  IC50: 0.302 µM
COR-L23
  IC50: 1.35 µM
K562
  IC50: > 2 µM
LU-99A
  IC50: 0.776 µM
RXF 393
  IC50: 0.929 µM
NCI-H1155
  IC50: > 2 µM

## O=c1cc(-c2cccc3c2Sc2ccccc2S3)oc(N2CCOCC2)c1 [KU-55933]
NCI-H1650
  IC50: > 10 µM
647-V
  IC50: > 10 µM
HEL
  IC50: > 10 µM
OVCAR-5
  IC50: > 10 µM
HCC1937
  IC50: > 10 µM
PC-3
  IC50: > 10 µM
UACC-62
  IC50: > 10 µM
COLO-678
  IC50: > 10 µM
OE19
  IC50: > 10 µM
RD
  IC50: > 10 µM
Becker
  IC50: > 10 µM
697
  IC50: > 10 µM
MCF7
  IC50: > 10 µM
HuO-3N1
  IC50: 4.17 µM
SW780
  IC50: > 10 µM
KP-N-YS
  IC50: > 10 µM
DEL
  IC50: > 10 µM
BHY
  IC50: > 10 µM
SW1463
  IC50: > 10 µM
LOX IMVI
  IC50: > 10 µM
COLO-792
  IC50: > 10 µM
NCI-H1355
  IC50: > 10 µM
EW-11
  IC50: > 10 µM
HD-MY-Z
  IC50: > 10 µM
MG-63
  IC50: > 10 µM
MMAC-SF
  IC50: > 10 µM
A4-Fuk
  IC50: > 10 µM
TE-1
  IC50: > 10 µM
S-117
  IC50: > 10 µM
SCC-9
  IC50: > 10 µM
SW48
  IC50: > 10 µM
ES6
  IC50: > 10 µM
OCUB-M
  IC50: > 10 µM
LXF-289 cell line
  IC50: > 10 µM
Calu-6
  IC50: > 10 µM
SNU-C2B
  IC50: > 10 µM
PC-14
  IC50: > 10 µM
COLO-668
  IC50: > 10 µM
NCI-H28
  IC50: > 10 µM
Hs-578T
  IC50: > 10 µM
HMV-2 cell line
  IC50: > 10 µM
CAL-27
  IC50: > 10 µM
KARPAS-299
  IC50: > 10 µM
A2058
  IC50: > 10 µM
LB2241-RCC
  IC50: > 10 µM
COR-L23
  IC50: > 10 µM
K562
  IC50: > 10 µM
LU-99A
  IC50: > 10 µM
RXF 393
  IC50: > 10 µM
NCI-H1155
  IC50: > 10 µM
